Test results as given in US20260207570A1, “OPTIMIZED DOSING OF LERIGLITAZONE” (MINORYX THERAPEUTICS S.L., priority 2022, published 2026).
Several values for one entry are separate records, joined by “and”; a condition that tells them apart may be missing. Equal entries are not always repeated. Where two headings read alike, the source gives them in different places.

Legend:
[1] = Phase 1 multiple ascending dose (MAD) pharmacokinetics with CSF collection in healthy volunteers; format: in vivo, human; settings: for CSF C4h / concentration at 4 h: total; for accumulation RCmax: day 8 vs day 1; for Vd/F: read-out: Vz/F
Method: (§1) Study design: A phase 1, randomized, double blind, placebo-controlled, single-center clinical study in 33 male healthy volunteers (HV) (19-54 years, 63.2-95.7 Kg) was conducted with leriglitazone HCl and divided in two parts: a single ascending dose (SAD) with three dose levels (30, 90 and 270 mg) in fasted conditions, followed with two dose levels (90 and 270 mg) in fed conditions; a multiple ascending dose (MAD) with a double-blind, parallel-design with two dose levels (135 and 270 mg) for 8 days and a separate cohort of subjects in an open-label parallel design with two dose levels (135 and 270 mg) including cerebrospinal fluid (CSF) collection on day 8. In the fasted conditions a fasting period of at least 4 hours was required before obtaining plasma samples. The food effect (FE) was assessed by comparing fasted with fed conditions (dosing after a high-fat breakfast per FDA definition with a calculated caloric content of 918 kcal). In the MAD part (fed) the medication was taken before a normal breakfast. Leriglitazone HCl was supplied by ChemConnection and an oral suspension of leriglitazone (20% w/v kleptose, 2% ethanol in 100 mM phosphate buffer pH=7.8) at 6 mg/ml was used in the study.
(§2) Blood, Urine and CSF sampling: In the SAD, blood samples were drawn at the following time points: pre-dose and 0.25, 0.5, 0.75, 1, 1.5, 2, 2.5, 3, 4, 5, 6, 8, 10, 12, 16, 24, 36, 48, 72, 96 and 120 hours post-dose. Urine was collected at pre-dose (within 12 hours prior to dosing) and over 0-6, 6-12, 12-24, 24-36, 36-48 hours post-dose collection intervals. In the MAD, blood samples were collected on day 1 at pre-dose and 0.25, 0.5, 0.75, 1, 1.5, 2, 2.5, 3, 4, 5, 6, 8, 10, 12, and 16 hours post-dose and at pre-dose and at 4 hours post-dose on day 2 to day 7, and on day 8 at pre-dose and 0.25, 0.5, 0.75, 1, 1.5, 2, 2.5, 3, 4, 5, 6, 8, 10, 12, 16, 24, 36, 48, 72, 96 and 120 hours post-dose. CSF were taken on day −1 and on day 8, at 4 hours post-dose.
(§3) Pharmacokinetic parameter calculation: PK parameters (Cmax, Tmax, t1/2, AUC0-t, CL/F, Vz/F, AUC0-t, RAUC, RCmax) were estimated using non-compartmental analysis (NCA) (Phoenix WinNonlin® Version 6.3).
(§4) Statistical analysis: Descriptive statistics for all relevant PK parameters: n, mean, minimum, median, maximum, geometric mean, and coefficient of variation (CV %); analysis of variance on Cmax and AUC to determine dose proportionality and food effect (FE).
The ratio of unbound leriglitazone concentration in brain to unbound concentration in plasma (Kpu,u; Cb,u/Cp,u) was calculated dividing the unbound CSF Cmax by the unbound plasma Cmax. Fractions unbound in plasma (fu,p) to obtain the unbound Cmax values were already reported. Rodriguez-Pascau, L. et al., Sci. Transl. Med. 13, eabc0555 (2021).

[2] = Phase 1 single ascending dose (SAD) pharmacokinetics in healthy volunteers; format: in vivo, human; settings: for Ka: estimated; for CL/F: geometric mean (CV %)
Method: as §1, §2, §3, §4

CC(O)c1ccc(CCOc2ccc(CC3SC(=O)NC3=O)cc2)nc1 (stereo not shown) [Leriglitazone, 5-[[4-[2-[5-(1-hydroxyethyl)pyridin-2-yl]ethoxy]phenyl]methyl]-1,3-thiazolidine-2,4-dione]
CL/F ([1]; 135 mg MD Day 1, n = 8, geometric mean (CV %)): 1.59 (17.8) L./h | CSF C4h ([1]; 135 mg MD Day 8, 4 hours post-dose, geometric mean (CV %)): 188 (15.9) ng/mL | CL/F ([1]; 270 mg MD Day 1, n = 8, geometric mean (CV %)): 1.63 (14.4) L./h | CSF C4h ([1]; 270 mg MD Day 8, 4 hours post-dose, geometric mean (CV %)): 332 (13.4) ng/mL | increase of CSF concentration on doubling the dose ([1]; 270 mg vs 135 mg, day 8, 4 hours post-dose): 1.8 fold | accumulation RCmax ([1]; MAD 135 mg): 1.7 | accumulation RAUC ([1]; MAD 270 mg dose): 1.81 | accumulation RCmax ([1]; MAD 270 mg): 1.7 | time to steady state ([1]; MAD 135 or 270 mg daily, fed): 5 days | CSF Cmax ([1]; human, 135 mg): 188 ng/mL | CSF Cmax ([1]; human, 270 mg): 332 ng/mL | brain penetration ([1]; judged from CSF to plasma concentrations): good | Kp at 4 h ([1]; male, CSF and plasma (unbound), oral, human, 135 mg, unbound CSF Cmax / unbound plasma Cmax, read-out: Kpu, u based on CSF): 0.55 | Kp ([1]; male, CSF and plasma (unbound), oral, human, 270 mg, unbound CSF Cmax / unbound plasma Cmax, read-out: Kpu, u based on CSF): 0.54 | Kp at 4 h ([1]; male, human, CSF and plasma, oral, 135 mg MD Day 8, geometric mean (CV %), read-out: CSF/Plasma): 0.021 | Kp at 4 h ([1]; male, human, CSF and plasma, oral, 270 mg MD Day 8, geometric mean (CV %), read-out: CSF/Plasma): 0.024 | Kp at 4 h ([1]; male, human, CSF and plasma, oral, day 8, 4 hours post-dose, read-out: total concentrations in CSF as share of total plasma concentrations): 0.022 to 0.025 | concentration at 4 h ([1]; male, human, CSF, oral, 135 mg MD Day 8, 4 hours post-dose, geometric mean (CV %), read-out: CSF C4h): 188 ng/mL | concentration at 4 h ([1]; male, human, CSF, oral, 270 mg MD Day 8, 4 hours post-dose, geometric mean (CV %), read-out: CSF C4h): 332 ng/mL | Tmax ([1]; male, human, plasma, oral, 135 mg, 135 mg MD Day 1, n = 8, Median, read-out: Tmax): 3 h | Vd/F ([1]; male, human, plasma, oral, 135 mg, 135 mg MD Day 1, n = 8, geometric mean (CV %)): 47.1 L | Cmax ([1]; male, human, plasma, oral, 135 mg, 135 mg MD Day 1, n = 8, plasma total, geometric mean, read-out: Cmax): 5430 ng/mL | Tmax ([1]; male, human, plasma, oral, 135 mg, 135 mg MD Day 8, n = 8, Median, read-out: Tmax): 4 h | Vd/F ([1]; male, human, plasma, oral, 135 mg, 135 mg MD Day 8, n = 8, geometric mean (CV %)): 27.7 L | Cmax ([1]; male, human, plasma, oral, 135 mg, 135 mg MD Day 8, n = 8, plasma total, geometric mean, read-out: Cmax): 9500 ng/mL | AUC ([1]; male, human, plasma, oral, 135 mg, 135 mg daily, fed, Day 1, read-out: AUC, Observed): 85.1 µg·h/mL | Cmax ([1]; male, human, plasma, oral, 135 mg, 135 mg daily, fed, Day 1, read-out: Cmax, Observed): 5490 ng/mL | Tmax ([1]; male, human, plasma, oral, 135 mg, 135 mg daily, fed, Day 1, read-out: Tmax, Observed): 3 h | AUC ([1]; male, human, plasma, oral, 135 mg, 135 mg daily, fed, Day 8, read-out: AUC, Observed): 145 µg·h/mL | Cmax ([1]; male, human, plasma, oral, 135 mg, 135 mg daily, fed, Day 8, read-out: Cmax, Observed): 9490 ng/mL | Tmax ([1]; male, human, plasma, oral, 135 mg, 135 mg daily, fed, Day 8, read-out: Tmax, Observed): 4 h | AUC ([1]; male, human, plasma, oral, 135 mg, human, 135 mg, read-out: Total plasma AUC): 145 µg·h/mL | Cmax ([1]; male, human, plasma, oral, 135 mg, human, 135 mg, read-out: Total plasma Cmax): 9490 ng/mL | Tmax ([1]; male, human, plasma, oral, 270 mg, 270 mg MD Day 1, n = 8, Median, read-out: Tmax): 3 h | Vd/F ([1]; male, human, plasma, oral, 270 mg, 270 mg MD Day 1, n = 8, geometric mean (CV %)): 52.7 L | Cmax ([1]; male, human, plasma, oral, 270 mg, 270 mg MD Day 1, n = 8, plasma total, geometric mean, read-out: Cmax): 10000 ng/mL | Tmax ([1]; male, human, plasma, oral, 270 mg, 270 mg MD Day 8, n = 7, Median, read-out: Tmax): 4 h | Vd/F ([1]; male, human, plasma, oral, 270 mg, 270 mg MD Day 8, n = 7, geometric mean (CV %)): 29.5 L | Cmax ([1]; male, human, plasma, oral, 270 mg, 270 mg MD Day 8, n = 7, plasma total, geometric mean, read-out: Cmax): 17000 ng/mL | AUC ([1]; male, human, plasma, oral, 270 mg, 270 mg daily, fed, Day 1, read-out: AUC, Observed): 165 µg·h/mL | Cmax ([1]; male, human, plasma, oral, 270 mg, 270 mg daily, fed, Day 1, read-out: Cmax, Observed): 10000 ng/mL | Tmax ([1]; male, human, plasma, oral, 270 mg, 270 mg daily, fed, Day 1, read-out: Tmax, Observed): 3 h | AUC ([1]; male, human, plasma, oral, 270 mg, 270 mg daily, fed, Day 8, read-out: AUC, Observed): 299 µg·h/mL | Cmax ([1]; male, human, plasma, oral, 270 mg, 270 mg daily, fed, Day 8, read-out: Cmax, Observed): 17200 ng/mL | Tmax ([1]; male, human, plasma, oral, 270 mg, 270 mg daily, fed, Day 8, read-out: Tmax, Observed): 4 h | AUC ([1]; male, human, plasma, oral, 270 mg, human, 270 mg, read-out: Total plasma AUC): 299 µg·h/mL | Cmax ([1]; male, human, plasma, oral, 270 mg, human, 270 mg, read-out: Total plasma Cmax): 17200 ng/mL | concentration at 4 h ([1]; male, human, plasma, oral, 270 mg MD Day 8, 4 hours post-dose, geometric mean (CV %), read-out: Plasma C4h): 14200 ng/mL | mean CL/F ([1]; phase 1 MAD part day 8): 0.93 L/h | dose excreted in urine as free analyte ([2]; 48-hour collection period): < 0.4% | dose excreted in urine as the analyte, mostly in a conjugated state ([2]; 48-hour collection period): 6.5% | Ka ([2]; SAD 30 mg Fasted): 6.35 (CV: 676%) 1/h | CL/F ([2]; SAD 30 mg fasted, n = 6): 0.679 (9.0) L/h | Ka ([2]; SAD 90 mg Fasted): 4.43 (CV: 222%) 1/h | Ka ([2]; SAD 90 mg Fed): 0.89 1/h and 0.89 (CV: 68%) 1/h | CL/F ([2]; SAD 90 mg fasted, n = 6): 0.746 (10.1) L/h | CL/F ([2]; SAD 90 mg fed, n = 3): 0.747 (6.7) L/h | Ka ([2]; SAD 270 mg Fasted): 1.92 (CV: 75%) 1/h
